From patent US5977174A, “Cholinergic compositions and uses thereof” (Neuromedica, Inc., priority 1997, dated 1999)
Where two headings read alike, the source gives them in different places.

What was measured:
Solubility = assay type: physicochemical; conditions: for Solubility in solvents: organic solvents, water; for solubility: read-out: Solubility: amount dissolved in 1.0 mL
Stability = assay type: physicochemical
Description: The compound should be kept at -20° C. under Argon.

[1] = animal models, clinical trials; cited from earlier work
[2] = models of aging; cited from earlier work
[3] = cited from earlier work
[4] = system: locomotor activity of mice; test: Locomotor activity study (dose-response of DHA-choline-induced locomotor depression); assay type: in vivo, male Swiss-Webster mice (Hsd:ND4); conditions: 20 min pretreatment
Description: A dose-response study of DHA-choline-induced locomotor depression was conducted using 40 Digiscan locomotor activity testing chambers (40.5×40.5×30.5 cm) housed in sets of two, within sound attenuating chambers. A panel of infrared beams (16 beams) and corresponding photo detectors were located in the horizontal direction along the sides of each activity chamber. A 7.5W incandescent light above each chamber provided dim illumination. Fans provided an 80-dB ambient noise level within the chamber. Separate groups of 8 non-habituated male Swiss-Webster mice (Hsd:ND4, aged 2-3 mo.) were injected via the intraperitoneal route (i.p.) with either vehicle or DHA-choline (0.5, 2.5, 5, 10, 20 or 40 mg/kg), 20 minutes prior to locomotor activity testing. In all studies, the total distance (cm traversed in the horizontal plane) was measured for 2 hours within 10 min periods.
The figures show the dose response data for the locomotor activity (Stewart et al., Psychopharmacol 60:281, 1979) of mice injected with different doses of the compound. The figures show average distance per 10 min as a function of time (FIG. 1) and dose (FIG. 2) 20 minutes following DHA-choline pretreatment. The period 0-30 min was selected for analysis of dose-response data because this is the time period in which DHA-choline produced maximal effects. […]

rat brain = test: Infarct volume after MCA occlusion of rat brain (triphenyltetrazolium chloride staining); assay type: in vivo; conditions: 50 mg/kg i.p. at three hours after initiation of the stroke event; n=5
Description: Two sets of experiments were carried out. In the first set, rats were administered with 50 mg/kg of DHA-choline i.p. at 30 minutes prior to occlusion of the middle cerebral artery of the left side of the brain using a standard highly reproducible animal model of stroke (Karpiak et al., J. Neurosci Res.30:512-520, 1991). Occlusion of the middle cerebral artery inhibits blood flow to a major portion of the left cortical and subcortical regions of the brain. After a two hour period, the occluded blood vessel was opened to allow reperfusion of the brain, and anesthesia was terminated. Each animal received additional doses of 50 mg/kg of DHA-choline 24 and 48 hours later.
The animals were sacrificed, perfused with formalin fixative, brains were sliced into seven 2 mm thick coronal sections, and stained with triphenyltetrazolium chloride (Watson et al., J. Neurosci. Methods 53:203-208, 1994). In this test, tissue that contains intact mitochondria stains red, whereas dead tissue with damaged mitochondria picks up no stain and remains white. Each unstained area on the left side of a section was measured and compared to the total area of the control non-occluded right side of the same section of the brain. The area of damaged (white) brain tissue cells was calculated as a percent of the intact right side of a section. […] (n=5 per group.) […]

CC/C=C\C/C=C\C/C=C\C/C=C\C/C=C\C/C=C\CCC(=O)OCCN(C)C [2-dimethylaminoethyl docosahexaenoate]
Solubility in solvents (Solubility): soluble in EtOAc, Et2 O, CH2 C2, CHCl3, EtOH insoluble in H2 O | Stability in air (appearance) (Stability; exposed in the air for several days): turns dark when exposed in the air for several days

C[N+](C)(C)CCOP(=O)(O)OP(=O)([O-])OC[C@H]1O[C@@H](n2ccc(N)nc2=O)[C@H](O)[C@@H]1O [CDP-choline, Cytidine 5'-diphosphocholine]
neuroprotective effect [1]: neuroprotective effect | effect on memory and learning deficits [2]: improves memory and learning deficits

CC/C=C\C/C=C\C/C=C\C/C=C\C/C=C\C/C=C\CCC(=O)O [DHA, cis-docosahexaenoic acid]
stability in the presence of oxygen [3]: can be unstable in the presence of oxygen

CC/C=C\C/C=C\C/C=C\C/C=C\C/C=C\C/C=C\CCC(=O)OCC[N+](C)(C)C [DHA-choline, Docosahexaenoyl Choline Iodide]
ED50 ([4]; Mus musculus, ip, 0-30 min period, maximal depressant activity = 0 cm/30 min, read-out: ID50 dose producing 1/2 maximal depressant activity (locomotor activity)): 12.9 mg/kg | time period of maximal effects ([4]; i.p.): 0 to 30 min | infarct volume relative to vehicle controls (rat brain): approximately 50% | solubility (Solubility; 1.0 mL ascorbic acid in saline with 0.02 mL detergent): 5500 µg/mL | solubility (Solubility; 10% albumin saline with detergent, 1.0 mL 10% albumin in saline with 0.01 mL detergent): 7800 µg/mL | Solubility in solvents (Solubility): soluble in CH2 Cl2, CHCl3, EtOAc, EtOH insoluble in hexanes, Et2 O | Stability in air (1H NMR analysis) (Stability; exposed in the air for 5 days): had not decomposed | Stability on long exposure to air (Stability; exposed in the air for too long): will decompose
